{
  "source": "paper PMC9099682",
  "about": "(2022)",
  "key": {"[1]": {"tested_on": "Pu22 (DNA, G4) TGAGGGTGGGTAGGGTGGGTAA", "test": "CD spectroscopy", "settings": "K+ 4.5 mM, Na+ (137 mM NaCl, 10 mM Na2HPO4); PBS pH 7.4, 40 °C; 125 µM tPD, 2.5 µM DNA; CD band increase at 263 nm"}, "[2]": {"tested_on": "Pu22 (DNA, G4) TGAGGGTGGGTAGGGTGGGTAA", "test": "CD melting at 265 nm", "settings": "K+ 4.5 mM, Na+ (137 mM NaCl, 10 mM Na2HPO4); PBS pH 7.4; 125 µM tPD, 2.5 µM DNA (50 equiv.); Tm 62 to 64 °C"}},
  "data": [
    {"compound": "OC[C@H]1O[C@@H](Oc2cc(O)cc(/C=C/c3ccc(O)cc3)c2)[C@H](O)[C@@H](O)[C@@H]1O", "values": [
      {"measurement": "binding", "setting": "[1]", "value": "yes"},
      {"measurement": "ΔTm", "setting": "[2]", "value": "+2 °C"}
    ]}
  ]
}
